Results published in patent US20230365592A1 (Agios Pharmaceuticals, Inc., priority 2022, published 2023).

These molecules were tested against T1, human PAH with the R408W mutation (Homo sapiens, UniProt P00439, R408W) (assay: Cell Based Phenylalanine Flux Assay). Conditions: A375 cells expressing human PAH R408W; 24 hrs compound incubation; 13C-Tyrosine by LC-MS; average where tested multiple times; read-out: AC50.
T1 construct: expressed in transfected cells
T1 sequence (P00439 1-452 R408W): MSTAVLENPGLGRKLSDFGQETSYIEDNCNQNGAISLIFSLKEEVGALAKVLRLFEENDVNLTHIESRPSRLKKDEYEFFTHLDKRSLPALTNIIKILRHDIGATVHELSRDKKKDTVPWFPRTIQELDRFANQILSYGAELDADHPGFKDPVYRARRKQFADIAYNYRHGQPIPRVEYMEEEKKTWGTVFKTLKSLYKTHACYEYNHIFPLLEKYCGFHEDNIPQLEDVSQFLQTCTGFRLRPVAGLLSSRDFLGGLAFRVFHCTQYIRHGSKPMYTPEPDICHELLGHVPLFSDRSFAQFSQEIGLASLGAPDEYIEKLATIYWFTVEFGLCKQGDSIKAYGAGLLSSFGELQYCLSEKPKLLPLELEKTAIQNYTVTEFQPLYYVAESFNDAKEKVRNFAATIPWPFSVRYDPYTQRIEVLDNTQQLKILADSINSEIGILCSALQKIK
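Also: after compound treatment, cells received sepiapterin plus isotope-labelled Phenylalanine for 4 hours, then labelled Tyrosine in the medium was quantified, 10-point 2-fold dilution series run in duplicate.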

**Q.** Which AC50 does the source give for Cc1cccn2nc([C@@H]3c4nc[nH]c4CCN3c3ncc(N)cn3)cc12 [Example 1827, (S)-2-(4-(4-methylpyrazolo[1,5-a]pyridin-2-yl)-6,7-dihydro-1H-imidazo[4,5-c]pyridin-5(4H)-yl)pyrimidin-5-amine] here?
**A.** 500 to 1000 nM

**Q.** For FC(F)c1cccn2nc([C@H]3c4nc[nH]c4CCN3c3cncc(Cl)n3)cc12 [Example 1828, (R)-5-(6-chloropyrazin-2-yl)-4-(4-(difluoromethyl)pyrazolo[1,5-a]pyridin-2-yl)-4,5,6,7-tetrahydro-1H-imidazo[4,5-c]pyridine], which AC50 is on record?
**A.** 1000 to 5000 nM

**Q.** FC(F)c1cccn2nc([C@@H]3c4nc[nH]c4CCN3c3cncc(Cl)n3)cc12 [Example 1829, (S)-5-(6-chloropyrazin-2-yl)-4-(4-(difluoromethyl)pyrazolo[1,5-a]pyridin-2-yl)-4,5,6,7-tetrahydro-1H-imidazo[4,5-c]pyridine] was tested. Which AC50 did it give?
**A.** < 500 nM

**Q.** How did the AC50 turn out when Clc1cccn2nc([C@H]3c4nc[nH]c4CCN3c3nnc(C4CCC4)o3)cc12 [Example 1830, (R)-2-(4-(4-chloropyrazolo[1,5-a]pyridin-2-yl)-6,7-dihydro-1H-imidazo[4,5-c]pyridin-5(4H)-yl)-5-cyclobutyl-1,3,4-oxadiazole] was run?
**A.** > 5000 nM

**Q.** Clc1cccn2nc([C@@H]3c4nc[nH]c4CCN3c3nnc(C4CCC4)o3)cc12 [Example 1831, (S)-2-(4-(4-chloropyrazolo[1,5-a]pyridin-2-yl)-6,7-dihydro-1H-imidazo[4,5-c]pyridin-5(4H)-yl)-5-cyclobutyl-1,3,4-oxadiazole] was tested. Which AC50 did it give?
**A.** 500 to 1000 nM

**Q.** For CC(C)(C)c1nnc(N2CCc3[nH]cnc3[C@H]2c2cc3c(Cl)cccn3n2)o1 [Example 1833, (S)-2-(tert-butyl)-5-(4-(4-chloropyrazolo[1,5-a]pyridin-2-yl)-6,7-dihydro-1H-imidazo[4,5-c]pyridin-5(4H)-yl)-1,3,4-oxadiazole], which AC50 is on record?
**A.** 500 to 1000 nM

**Q.** Which AC50 does the source give for Nc1cnc(N2CCc3[nH]cnc3[C@H]2c2cc3c(C(F)(F)F)cccn3n2)nc1 [Example 1835, (S)-2-(4-(4-(trifluoromethyl)pyrazolo[1,5-a]pyridin-2-yl)-1,4,6,7-tetrahydro-5H-imidazo[4,5-c]pyridin-5-yl)pyrimidin-5-amine] here?
**A.** 500 to 1000 nM

**Q.** With Nc1cnc(N2CCc3[nH]cnc3[C@H]2c2cc3c(F)cccn3n2)nc1 [Example 1837, (S)-2-(4-(4-fluoropyrazolo[1,5-a]pyridin-2-yl)-1,4,6,7-tetrahydro-5H-imidazo[4,5-c]pyridin-5-yl)pyrimidin-5-amine] as the molecule, how does the AC50 read?
**A.** 500 to 1000 nM

**Q.** Which AC50 does the source give for O=C(c1nnc(C2CC2)o1)N1CCc2[nH]cnc2[C@H]1c1cc2c(C3CC3)cccn2n1 [Example 1838, (S)-(5-cyclopropyl-1,3,4-oxadiazol-2-yl)(4-(4-cyclopropylpyrazolo[1,5-a]pyridin-2-yl)-1,4,6,7-tetrahydro-5H-imidazo[4,5-c]pyridin-5-yl)methanone] here?
**A.** < 500 nM

**Q.** For O=C(c1nnc(C2CC2)o1)N1CCc2[nH]cnc2[C@@H]1c1cc2c(C3CC3)cccn2n1 [Example 1839, (R)-(5-cyclopropyl-1,3,4-oxadiazol-2-yl)(4-(4-cyclopropylpyrazolo[1,5-a]pyridin-2-yl)-1,4,6,7-tetrahydro-5H-imidazo[4,5-c]pyridin-5-yl)methanone], which AC50 is on record?
**A.** > 5000 nM

**Q.** How did the AC50 turn out when CC(C)(C)c1nnc(C(=O)N2CCc3[nH]cnc3[C@H]2c2cc3c(C4CC4)cccn3n2)o1 [Example 1840, (S)-(5-(tert-butyl)-1,3,4-oxadiazol-2-yl)(4-(4-cyclopropylpyrazolo[1,5-a]pyridin-2-yl)-1,4,6,7-tetrahydro-5H-imidazo[4,5-c]pyridin-5-yl)methanone] was run?
**A.** < 500 nM

**Q.** How did the AC50 turn out when CC(C)(C)c1nnc(C(=O)N2CCc3[nH]cnc3[C@@H]2c2cc3c(C4CC4)cccn3n2)o1 [Example 1841, (R)-(5-(tert-butyl)-1,3,4-oxadiazol-2-yl)(4-(4-cyclopropylpyrazolo[1,5-a]pyridin-2-yl)-1,4,6,7-tetrahydro-5H-imidazo[4,5-c]pyridin-5-yl)methanone] was run?
**A.** > 5000 nM

**Q.** With Cc1cccn2nc([C@H]3c4nc[nH]c4CCN3c3nnc(-c4c(F)cccc4F)o3)cc12 [Example 1844, (R)-2-(2,6-difluorophenyl)-5-(4-(4-methylpyrazolo[1,5-a]pyridin-2-yl)-6,7-dihydro-1H-imidazo[4,5-c]pyridin-5(4H)-yl)-1,3,4-oxadiazole] as the molecule, how does the AC50 read?
**A.** > 5000 nM

**Q.** Cc1cccn2nc([C@@H]3c4nc[nH]c4CCN3c3nnc(-c4c(F)cccc4F)o3)cc12 [Example 1845, (S)-2-(2,6-difluorophenyl)-5-(4-(4-methylpyrazolo[1,5-a]pyridin-2-yl)-6,7-dihydro-1H-imidazo[4,5-c]pyridin-5(4H)-yl)-1,3,4-oxadiazole] was tested. Which AC50 did it give?
**A.** < 500 nM

**Q.** How did the AC50 turn out when Fc1cccc(F)c1-c1nnc(N2CCc3[nH]cnc3[C@H]2c2cc3c(C(F)(F)F)cccn3n2)o1 [Example 1847, (S)-2-(2,6-difluorophenyl)-5-(4-(4-(trifluoromethyl)pyrazolo[1,5-a]pyridin-2-yl)-6,7-dihydro-1H-imidazo[4,5-c]pyridin-5(4H)-yl)-1,3,4-oxadiazole] was run?
**A.** < 500 nM

**Q.** With FC(F)(F)c1nnc(N2CCc3[nH]cnc3[C@@H]2c2cc3c(Cl)cccn3n2)o1 [Example 1848, (R)-2-(4-(4-chloropyrazolo[1,5-a]pyridin-2-yl)-6,7-dihydro-1H-imidazo[4,5-c]pyridin-5(4H)-yl)-5-(trifluoromethyl)-1,3,4-oxadiazole] as the molecule, how does the AC50 read?
**A.** > 5000 nM

**Q.** For FC(F)(F)c1nnc(N2CCc3[nH]cnc3[C@H]2c2cc3c(Cl)cccn3n2)o1 [Example 1849, (S)-2-(4-(4-chloropyrazolo[1,5-a]pyridin-2-yl)-6,7-dihydro-1H-imidazo[4,5-c]pyridin-5(4H)-yl)-5-(trifluoromethyl)-1,3,4-oxadiazole], which AC50 is on record?
**A.** < 500 nM

**Q.** Which AC50 does the source give for Cc1cccc2cc([C@@H]3c4nc[nH]c4CCN3c3nnc(C(F)(F)F)o3)nn12 [Example 1850, (S)-2-(4-(7-methylpyrazolo[1,5-a]pyridin-2-yl)-6,7-dihydro-1H-imidazo[4,5-c]pyridin-5(4H)-yl)-5-(trifluoromethyl)-1,3,4-oxadiazole] here?
**A.** 500 to 1000 nM

**Q.** Cc1cccc2cc([C@H]3c4nc[nH]c4CCN3c3nnc(C(F)(F)F)o3)nn12 [Example 1851, (R)-2-(4-(7-methylpyrazolo[1,5-a]pyridin-2-yl)-6,7-dihydro-1H-imidazo[4,5-c]pyridin-5(4H)-yl)-5-(trifluoromethyl)-1,3,4-oxadiazole] was tested. Which AC50 did it give?
**A.** 1000 to 5000 nM

**Q.** How did the AC50 turn out when Nc1cnc(N2CCc3[nH]cnc3[C@H]2c2cc3c(C(F)F)cccn3n2)nc1 [Example 1852, (S)-2-(4-(4-(difluoromethyl)pyrazolo[1,5-a]pyridin-2-yl)-1,4,6,7-tetrahydro-5H-imidazo[4,5-c]pyridin-5-yl)pyrimidin-5-amine] was run?
**A.** 500 to 1000 nM

**Q.** With Nc1cnc(N2CCc3[nH]cnc3[C@@H]2c2cc3c(C(F)F)cccn3n2)nc1 [Example 1853, (R)-2-(4-(4-(difluoromethyl)pyrazolo[1,5-a]pyridin-2-yl)-1,4,6,7-tetrahydro-5H-imidazo[4,5-c]pyridin-5-yl)pyrimidin-5-amine] as the molecule, how does the AC50 read?
**A.** 1000 to 5000 nM

**Q.** With O=C(c1nnc(-c2ncccc2F)o1)N1CCc2[nH]cnc2[C@@H]1c1cc2c(C3CC3)cccn2n1 [Example 1854, (R)-(4-(4-cyclopropylpyrazolo[1,5-a]pyridin-2-yl)-1,4,6,7-tetrahydro-5H-imidazo[4,5-c]pyridin-5-yl)(5-(3-fluoropyridin-2-yl)-1,3,4-oxadiazol-2-yl)methanone] as the molecule, how does the AC50 read?
**A.** > 5000 nM

**Q.** For O=C(c1nnc(-c2ncccc2F)o1)N1CCc2[nH]cnc2[C@H]1c1cc2c(C3CC3)cccn2n1 [Example 1855, (S)-(4-(4-cyclopropylpyrazolo[1,5-a]pyridin-2-yl)-1,4,6,7-tetrahydro-5H-imidazo[4,5-c]pyridin-5-yl)(5-(3-fluoropyridin-2-yl)-1,3,4-oxadiazol-2-yl)methanone], which AC50 is on record?
**A.** < 500 nM

**Q.** Which AC50 does the source give for Cc1nnc(C(=O)N2CCc3[nH]cnc3[C@H]2c2cc3c(C(C)C)cccn3n2)o1 [Example 1858, (S)-(4-(4-isopropylpyrazolo[1,5-a]pyridin-2-yl)-1,4,6,7-tetrahydro-5H-imidazo[4,5-c]pyridin-5-yl)(5-methyl-1,3,4-oxadiazol-2-yl)methanone] here?
**A.** < 500 nM

**Q.** Fc1ccc(-c2nnc(N3CCc4[nH]cnc4[C@H]3c3cc4ccccn4n3)o2)cc1 [Example 1861, (S)-2-(4-fluorophenyl)-5-(4-(pyrazolo[1,5-a]pyridin-2-yl)-1,4,6,7-tetrahydro-5H-imidazo[4,5-c]pyridin-5-yl)-1,3,4-oxadiazole] was tested. Which AC50 did it give?
**A.** < 500 nM

**Q.** With Fc1cccc(F)c1-c1nnc(N2CCc3[nH]cnc3[C@@H]2c2cc3c(C(F)F)cccn3n2)o1 [Example 1862, (R)-2-(4-(4-(difluoromethyl)pyrazolo[1,5-a]pyridin-2-yl)-1,4,6,7-tetrahydro-5H-imidazo[4,5-c]pyridin-5-yl)-5-(2,6-difluorophenyl)-1,3,4-oxadiazole] as the molecule, how does the AC50 read?
**A.** > 5000 nM

**Q.** How did the AC50 turn out when Fc1cccc(F)c1-c1nnc(N2CCc3[nH]cnc3[C@H]2c2cc3c(C(F)F)cccn3n2)o1 [Example 1863, (S)-2-(4-(4-(difluoromethyl)pyrazolo[1,5-a]pyridin-2-yl)-1,4,6,7-tetrahydro-5H-imidazo[4,5-c]pyridin-5-yl)-5-(2,6-difluorophenyl)-1,3,4-oxadiazole] was run?
**A.** < 500 nM

**Q.** Which AC50 does the source give for Cn1cc(-c2nnc(C(=O)N3CCc4[nH]cnc4[C@H]3c3cc4c(Br)cccn4n3)o2)cn1 [Example 1868, (S)-(4-(4-bromopyrazolo[1,5-a]pyridin-2-yl)1,4,6,7-tetrahydro-5H-imidazo[4,5-c]pyridin-5-yl)(5-(1-methyl-1H-pyrazol-4-yl)-1,3,4-oxadiazol-2-yl)methanone] here?
**A.** < 500 nM
